Structures are written as SMILES. Marks after values point to notes of the source that are not given here.

The subject of series [1] is B16-F10 murine melanoma cells. The experiment in a line: Melanogenesis inhibition assay (melanin content, absorbance at 450 nm). Format: cell-based. As to conditions: Mus musculus, 72 h, read-out: Melanogenesis % of control; for activity at 500 µM: 0.5 mmol/L (footnote *); for activity at 100 µM: 0.1 mmol/L; for activity at 1000 µM: 1.0 mmol/L. How it is done: Melanocytes (B16-F10/CRL-6475 murine melanoma cells, purchased from ATCC) were cultured in Dulbecco's Modified Eagle's Medium (DMEM)/Ham's F-12 50:50 mix with L-glutamine w/out phenol red/10% (v/v) newborn calf serum/1% (v/v) 100× Invitrogen Cat #15240-062 Antibiotic-Antimycotic at 37° C. (i.e., the growth medium) in a humidified atmosphere with 5% CO2. The cells were seeded into 12.5 cm^2 tissue culture flasks at a concentration of 1.0×10^5 cells/mL. A 3-mL cell suspension (seed medium) was added to each flask. The test compounds were dissolved in dimethyl sulfoxide (DMSO) at a concentration of 0.5 M. This 0.5 M stock was used to prepare various concentrations of the test compounds in growth medium, with the final concentration of DMSO at 0.2% by weight. Growth medium with diluted test compound is referred to as the dose medium. The controls were treated in the same manner, but without the test compound. After 24 hrs of incubation, the seed medium was replaced with 3 mL of dose medium (growth medium with various concentrations of test samples or control compounds). The dose medium was […] day, and the incubation continued for an additional 2 days. The dose medium was removed. The cells were dissolved in 1 mL of 1 N NaOH during incubation at 80° C. for 10 min. Samples of extracted melanin were transferred to a 96-well plate, and the absorbance was read at 450 nm. Each experiment was repeated three times. Kojic acid, arbutin, and hydroquinone were used as positive controls.

In series [2] the test system is B16-F10 murine melanoma cells. Put plainly: Cell viability assay (MTT). It counts as cell-based. How it is done:
After incubating the melanocytes with test samples or control compounds as mentioned above, 330 μL of a MTT solution (5 mg/mL MTT in standard medium with no added serum or antibiotic) was added. […] After orbital shaking for 10 min at room temperature, 1 mL of the contents of each flask was transferred to microfuge tubes and centrifuged for 10 min. 200 μL of each tube were then transferred to a 96-well plate, and the relative extent of MTT reduction was determined based on the absorbance at 590 nm. […] Kojic acid, arbutin, and hydroquinone were used as positive controls.

The mark [3] stands for this setting: 0.5 mmol/L (footnote *), MTT, B16-F10 cells.

Turning to `Sc1ncccn1` [2-Mercapto-Pyrimidine, 2-Mercaptopyrimidine, reference compound], the activity at 250 µM in series [1] (0.25 mmol/L) was 42%. Also, in series [1], the activity at 500 µM amounted to 35%. The “Cell Viability % of control” value was 81** % of control in series [2] (0.25 mmol/L, MTT, B16-F10 cells, no replication) and 68* % of control in series [2] (setting [3]).
As to `OC[C@H]1O[C@@H](Oc2ccc(O)cc2)[C@H](O)[C@@H](O)[C@@H]1O` [Arbutin, arbutin, reference compound], in series [1], the activity at 100 µM is 92% and the activity at 1000 µM was 83%. Moreover, the “Cell Viability % of control” value in series [2] (0.1 mmol/L, MTT, B16-F10 cells) was 125 % of control. The “Cell Viability % of control” value in series [2] (1.0 mmol/L, MTT, B16-F10 cells) is recorded as 134 % of control.
`COC(=O)CSc1ncccn1` [Comparative Example 1, Methyl 2-(pyrimidin-2′-ylthio)acetate, reference compound]: in series [1], the activity at 100 µM worked out at 115% and the activity at 1000 µM was found to be 98%. Besides, the “Cell Viability % of control” value in series [2] (0.1 mmol/L, MTT, B16-F10 cells) is listed as 114 % of control. Also, in series [2] (1.0 mmol/L, MTT, B16-F10 cells), the “Cell Viability % of control” value was 117 % of control.
On to `COC(=O)CCSc1ncccn1` [Comparative Example 2, Methyl 3-(Pyrimidin-2′-ylthio)propionate, reference compound], for which, in series [1], the activity at 100 µM turned out to be 98% and the activity at 500 µM was 96%. Further, in series [2] (0.1 mmol/L, MTT, B16-F10 cells), the “Cell Viability % of control” value is listed as 88 % of control. The “Cell Viability % of control” value in series [2] (setting [3]) was 84* % of control.
In the case of `CC(=O)Sc1ncccn1` [Example 1, Pyrimidin-2-yl Thiolacetate], in series [1], the activity at 100 µM was 71% and the activity at 1000 µM turned out to be 33%. Moreover, the “Cell Viability % of control” value in series [2] (0.1 mmol/L, MTT, B16-F10 cells) is 100 % of control. Also, the “Cell Viability % of control” value in series [2] (1.0 mmol/L, MTT, B16-F10 cells) was 6.6 % of control.
For the compound `CCC(=O)Sc1ncccn1` [Example 2, Pyrimidin-2-yl Thiolpropionate], in series [1], the activity at 100 µM came to 67% and the activity at 1000 µM turned out to be 36%. For the same compound, in series [2] (0.1 mmol/L, MTT, B16-F10 cells), the “Cell Viability % of control” value was 113 % of control. Further, the “Cell Viability % of control” value in series [2] (1.0 mmol/L, MTT, B16-F10 cells) is reported as 13.6 % of control.
The matching figures for `CCOC(=O)Sc1ncccn1` [Example 3, O-Ethyl-5-pyrimidin-2-yl Monothiolcarbonate]: 81%, 36%, 87 % of control and 32 % of control.
The matching figures for `CC(C)(C)C(=O)Sc1ncccn1` [Example 5, Pyrimidin-2′-yl 2,2-Dimethylpropanethioate]: 66%, 28%, 91 % of control and 7 % of control.
On to `O=C(Sc1ncccn1)c1ccccc1` [Example 6, Pyrimidin-2-yl Thiolbenzoate], for which, in series [1], the activity at 100 µM stood at 69% and the activity at 1000 µM is 39%. The “Cell Viability % of control” value in series [2] (0.1 mmol/L, MTT, B16-F10 cells) was 91 % of control. In series [2] (1.0 mmol/L, MTT, B16-F10 cells), the “Cell Viability % of control” value is on record as 69 % of control.
With `O=C(Sc1ncccn1)c1cccnc1` [Example 7, S-Pyrimidin-2′-yl Pyridine-3-carbothioate], in series [1], the activity at 100 µM came to 72% and the activity at 1000 µM was 27%. In series [2] (0.1 mmol/L, MTT, B16-F10 cells), the “Cell Viability % of control” value is listed as 101 % of control. Moreover, the “Cell Viability % of control” value in series [2] (1.0 mmol/L, MTT, B16-F10 cells) is 3.5 % of control.
With `O=C(Sc1ncccn1)c1ccncc1` [Example 8, S-Pyrimidin-2′-yl Pyridine-4-carbothioate], in series [1], the activity at 100 µM amounted to 70%. Further, the activity at 500 µM in series [1] amounted to 38%. For the same compound, the “Cell Viability % of control” value is reported as 92 % of control in series [2] (0.1 mmol/L, MTT, B16-F10 cells) and 36* % of control in series [2] (setting [3]).
With `Oc1ccc(O)cc1` [Hydroquinone, hydroquinone, reference compound], in series [1], the activity at 500 µM worked out at 33%. The “Cell Viability % of control” value in series [2] (mouse, 0.5 mmol/L) was 3* % of control.
With `O=c1cc(CO)occ1O` [Kojic acid, reference compound], in series [1], the activity at 100 µM worked out at 94% and the activity at 1000 µM is 86%. The “Cell Viability % of control” value in series [2] (mouse, 0.1 mmol/L) is given as 116 % of control. In addition, the “Cell Viability % of control” value in series [2] (mouse, 1 mmol/L) was 92 % of control.
